Patent US6534523B1, “Hepatitis C inhibitor tri-peptides” (Boehringer Ingelheim (Canada) Ltd., priority 1998, dated 2003)

Target: HCV NS3 protease (UniProt P26663)
Assay type: biochemical, HCV genotype 1b
Design: rows headed: IC50 (μM); IC50 (μM)
Settings: Table 6

Sequence of HCV NS3 protease (P26663 1027-1206, other chains not shown): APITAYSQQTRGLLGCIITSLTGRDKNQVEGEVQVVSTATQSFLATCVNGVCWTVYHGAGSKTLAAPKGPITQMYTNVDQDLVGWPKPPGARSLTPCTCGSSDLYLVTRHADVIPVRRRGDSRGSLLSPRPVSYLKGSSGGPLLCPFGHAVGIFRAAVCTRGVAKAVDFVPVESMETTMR

Compound: C=C[C@@H]1C[C@]1(NC(=O)[C@@H]1C[C@@H](Oc2cc(-c3ccccc3)nc3cc(OC)ccc23)CN1C(=O)[C@@H](NC(=O)OC(C)(C)C)C(C)C)C(=O)O [compound 601]
- IC50: 0.05 µM
